The results in this text go back to US11458138B2 (Novartis AG, priority 2017, dated 2022).

Structures are written as SMILES.

The target in the assay is Human LATS1 kinase domain protein (Homo sapiens (Human), UniProt O95835). Briefly: LATS1 Biochemical Caliper Assay (Compound Examples 291-335). Conditions: Caliper EZ Reader. The procedure: The LATS1 biochemical Caliper assay was performed as following.
Human LATS1 kinase domain protein was purchased from Carnabio (catalogue number 01-123; lot 15CBS-0098D). Human LATS1, catalytic domain [589-1130(end) amino acids of accession number NP_004681.1] was co-expressed as N-terminal GST-fusion protein (90 kDa) with human His-tagged MOBKL1A [1-216(end) amino acids of accession number NP_775739.1] using baculovirus expression system. GST-LATS1 was purified by using glutathione sepharose chromatography. The substrate (Fluo-SGKtide; Peptide for LATS1; lot BS-41067) has the following sequence: 5-Fluo-Nva-[…]-amide (SEQ ID NO: 27) x TFA and was purchased from Biosyntan.
The reaction is performed in reaction buffer containing 50 mM Hepes pH 7,5; 0.02% Tween20; 0.02% BSA; 1 mM DTT; 10 uM Na3VO4 and 10 mM beta-Glycerolphosphat and fresh added 1 mM MgCl2 and qsp H2O.
The substrate solution (2× conc.) in Reaction Buffer contains 300 μM ATP and 4 μM Fluo-SGKtide.
The kinase solution (2× conc.) in Reaction Buffer contains 20 nM LATS1 kinase. 4.5 μL of 2× conc. Kinase solution, 50 nL of 1.8 mM compounds and 4.5 μL of substrate solution were added into 384-well plates black small volume from Greiner and incubated at 32° C. for 1 hour. 15 μL of stop buffer containing 100 mM Hepes pH 7,5; 5% DMSO; 0.1% Coating reagent; 10 mM EDTA and 0.02% Brij35 and qsp H2O to each well to terminate the reaction.
Substrates and products were electrophoretically separated using the microfluidic-based Caliper EZ Reader System (Caliper Life Sciences) using a 12 sipper chip (cat 760404). The separation takes place in Coating Buffer (idem Stop buffer) and containing 0.1% Coating reagent CR3 and 0.5% coating reagent CR8 (Perkin Elmer).
Plates were read using a LED with an excitation at 488 nm and a detection at 520 nm to 5 quantify the fluorescence intensity.

Human LATS1 kinase domain protein, sequence (O95835 whole entry, looked up, the tested form may be a part): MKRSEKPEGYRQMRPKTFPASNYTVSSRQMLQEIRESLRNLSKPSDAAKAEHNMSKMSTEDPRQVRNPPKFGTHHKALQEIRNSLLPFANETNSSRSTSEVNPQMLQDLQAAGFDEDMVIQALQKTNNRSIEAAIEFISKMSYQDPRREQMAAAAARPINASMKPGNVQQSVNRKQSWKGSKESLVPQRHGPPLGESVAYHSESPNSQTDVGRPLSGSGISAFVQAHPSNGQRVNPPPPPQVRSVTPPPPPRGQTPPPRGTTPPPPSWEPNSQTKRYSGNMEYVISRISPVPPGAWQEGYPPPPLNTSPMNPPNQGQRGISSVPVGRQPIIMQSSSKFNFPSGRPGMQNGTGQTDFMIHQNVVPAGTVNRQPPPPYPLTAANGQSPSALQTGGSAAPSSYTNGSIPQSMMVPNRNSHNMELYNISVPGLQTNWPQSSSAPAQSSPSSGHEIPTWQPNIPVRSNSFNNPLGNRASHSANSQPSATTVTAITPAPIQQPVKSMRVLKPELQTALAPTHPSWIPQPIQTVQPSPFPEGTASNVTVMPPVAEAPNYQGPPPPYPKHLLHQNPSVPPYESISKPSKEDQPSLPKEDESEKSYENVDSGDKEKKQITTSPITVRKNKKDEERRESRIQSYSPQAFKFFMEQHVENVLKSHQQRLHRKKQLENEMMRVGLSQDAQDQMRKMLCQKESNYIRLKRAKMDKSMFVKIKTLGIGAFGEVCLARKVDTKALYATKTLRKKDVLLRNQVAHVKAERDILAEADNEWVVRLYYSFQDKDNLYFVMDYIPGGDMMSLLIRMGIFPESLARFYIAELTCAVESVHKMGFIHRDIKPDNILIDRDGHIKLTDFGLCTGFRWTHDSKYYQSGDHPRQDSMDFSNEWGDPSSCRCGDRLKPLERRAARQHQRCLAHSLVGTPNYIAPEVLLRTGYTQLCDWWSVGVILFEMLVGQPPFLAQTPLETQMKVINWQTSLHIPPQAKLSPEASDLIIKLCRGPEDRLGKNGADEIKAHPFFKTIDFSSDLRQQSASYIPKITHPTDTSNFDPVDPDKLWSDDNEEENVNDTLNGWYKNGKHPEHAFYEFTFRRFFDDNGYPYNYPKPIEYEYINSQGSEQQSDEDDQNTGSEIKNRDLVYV
Human LATS1 kinase domain protein, sequence (Q7L9L4 whole entry partner, looked up, the tested form may be a part): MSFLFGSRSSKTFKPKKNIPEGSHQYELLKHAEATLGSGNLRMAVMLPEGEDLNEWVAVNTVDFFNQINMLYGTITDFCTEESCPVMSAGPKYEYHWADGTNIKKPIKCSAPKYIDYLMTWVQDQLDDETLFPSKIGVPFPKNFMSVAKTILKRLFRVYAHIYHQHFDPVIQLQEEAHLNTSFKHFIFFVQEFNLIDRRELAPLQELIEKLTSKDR

As a reminder, the IC50 is the concentration that inhibits the measured activity by half. As to `CN1CCN(c2cc(-c3ccncc3)nc3cnccc23)CC1` [Example 291, 4-(4-methylpiperazin-1-yl)-2-(pyridin-4-yl)-1,7-naphthyridine], half-maximal inhibition (IC50) was put at 457 nM.
Regarding `c1cc(-c2cc(N3CCNCC3)c3ccncc3n2)ccn1` [Example 292, 4-(piperazin-1-yl)-2-(pyridin-4-yl)-1,7-naphthyridine], half-maximal inhibition (IC50) was put at 43.3 nM.
The same measure for `CC1CCCCN1c1cc(-c2ccncc2)nc2cnccc12` (centres unmarked) [Example 293, 4-(2-methylpiperidin-1-yl)-2-(pyridin-4-yl)-1,7-naphthyridine]: 16 nM.
Take `c1cc(-c2cc(NC3COC3)c3ccncc3n2)ccn1` [Example 296, N-(oxetan-3-yl)-2-(pyridin-4-yl)-1,7-naphthyridin-4-amine]: the midpoint of inhibition, the IC50, lay at 209 nM.
The same measure for `CC1(C)CN(c2cc(-c3ccncc3)nc3cnccc23)CCN1` [Example 298, 4-(3,3-dimethylpiperazin-1-yl)-2-(pyridin-4-yl)-1,7-naphthyridine]: 59 nM.
`CC1(C)CN(c2cc(-c3ccncc3)nc3cnccc23)CCO1` [Example 299, 2,2-dimethyl-4-(2-(pyridin-4-yl)-1,7-naphthyridin-4-yl)morpholine] gave an IC50 of 97.1 nM.
With `CN(C)C(C)(C)CNc1cc(-c2ccncc2)nc2cnccc12` [Example 302, N^2,N^2,2-trimethyl-N^1-(2-(pyridin-4-yl)-1,7-naphthyridin-4-yl)propane-1,2-diamine] the figure was 59.5 nM; with `FC(F)(F)[C@H]1CN(c2cc(-c3ccncc3)nc3cnccc23)CCN1` [Example 305, (R)-2-(pyridin-4-yl)-4-(3-(trifluoromethyl)piperazin-1-yl)-1,7-naphthyridine], 663 nM; with `CC(C)(CNc1nc(-c2ccncc2)nc2cnccc12)NC(=O)OC(C)(C)C` [Example 310, tert-butyl (2-methyl-1-((2-(pyridin-4-yl)pyrido[3,4-d]pyrimidin-4-yl)amino)propan-2-yl)carbamate], 164 nM.
The same measure for `CC(C)(C)OC(=O)NCCNc1nc(-c2ccncc2)nc2cnccc12` [Example 311, tert-butyl (2-((2-(pyridin-4-yl)pyrido[3,4-d]pyrimidin-4-yl)amino)ethyl)carbamate]: 1030 nM.
Molecule `CN(C)C(=O)C(C)(C)Nc1nc(-c2ccncc2)nc2cnccc12` [Example 314, N,N,2-trimethyl-2-((2-(pyridin-4-yl)pyrido[3,4-d]pyrimidin-4-yl)amino)propanamide] had an IC50 of 467 nM.
With `CC(C)(CNC(=O)OC(C)(C)C)CNc1nc(-c2ccncc2)nc2cnccc12` [Example 316, tert-butyl (2,2-dimethyl-3-((2-(pyridin-4-yl)pyrido[3,4-d]pyrimidin-4-yl)amino)propyl)carbamate] the figure was 42.5 nM.
With `FC(F)(F)[C@@H]1CN(c2nc(-c3ccncc3)nc3cnccc23)CCN1` [Example 321, (S)-2-(pyridin-4-yl)-4-(3-(trifluoromethyl)piperazin-1-yl)pyrido[3,4-d]pyrimidine] the figure was 3.8 nM; with `CCOC(=O)C(C)(C)Nc1nc(-c2ccncc2)nc2cnccc12` [Example 322, ethyl 2-methyl-2-((2-(pyridin-4-yl)pyrido[3,4-d]pyrimidin-4-yl)amino)propanoate], 29.2 nM; with `CN(C)CC(C)(C)CNc1nc(-c2ccncc2)nc2cnccc12` [Example 323, N^1,N^1,2,2-tetramethyl-N^3-(2-(pyridin-4-yl)pyrido[3,4-d]pyrimidin-4-yl)propane-1,3-diamine], 4.5 nM.
For the molecule `CC(C)(C)Nc1nc(-c2nonc2N)nc2cnccc12` [Example 324, 4-(4-(tert-butylamino)pyrido[3,4-d]pyrimidin-2-yl)-1,2,5-oxadiazol-3-amine], half-maximal inhibition (IC50) was put at 10.4 nM.
The same measure for `CN(C)C(C)(C)CNc1nc(-c2ccncc2)nc2cnccc12` [Example 325, N^2,N^2,2-trimethyl-N^1-(2-(pyridin-4-yl)pyrido[3,4-d]pyrimidin-4-yl)propane-1,2-diamine]: 3.7 nM.
